The record followed here is US12378231B2, “Small molecules as monoacylglycerol lipase (MAGL) inhibitors, compositions and use thereof” (APOGEE PHARMACEUTICALS, INC., priority 2023, dated 2025).

One test concerns the target human recombinant MAGL (Homo sapiens (Human), UniProt Q99685). Briefly: In vitro inhibition of human recombinant MAGL activity (Cayman inhibitor screening kit, 4-nitrophenylacetate hydrolysis). The class given is biochemical. The source says: The inhibitory effect of the synthetic chemicals on activity of human recombinant MAGL was studied using commercial inhibitor screening kit (Cayman Chemical). […] The absorbance of the yellow product can be analyzed using the plate reader. […]

The target of a further test is human recombinant FAAH (Homo sapiens (Human), UniProt O00519). Briefly: In vitro inhibition of human recombinant FAAH activity (Cayman FAAH inhibitor screening kit, AMC arachidonoyl amide hydrolysis). The class given is biochemical. From the text:
In brief, FAAH hydrolyzes AMC arachidonoyl amide resulting in the release of the fluorescent product, while the inhibitor will inhibit the FAAH activity and thus reduce the fluorescent signal.

[1] abbreviates: human recombinant MAGL, read-out: Inhibition on MAGL activity (IC50).

pIC50: −log10 of the molar value. Where two headings read alike, the source gives them in different places.

human recombinant MAGL, sequence (Q99685 whole entry): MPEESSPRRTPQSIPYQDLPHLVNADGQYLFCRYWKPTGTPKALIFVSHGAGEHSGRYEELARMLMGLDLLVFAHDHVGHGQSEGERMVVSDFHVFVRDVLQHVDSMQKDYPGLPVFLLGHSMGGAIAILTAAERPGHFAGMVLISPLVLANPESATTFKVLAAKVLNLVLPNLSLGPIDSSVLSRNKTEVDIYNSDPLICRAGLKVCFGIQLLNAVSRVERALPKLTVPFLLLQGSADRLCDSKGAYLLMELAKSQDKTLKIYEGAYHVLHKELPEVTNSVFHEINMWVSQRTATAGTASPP
human recombinant FAAH, sequence (O00519 whole entry): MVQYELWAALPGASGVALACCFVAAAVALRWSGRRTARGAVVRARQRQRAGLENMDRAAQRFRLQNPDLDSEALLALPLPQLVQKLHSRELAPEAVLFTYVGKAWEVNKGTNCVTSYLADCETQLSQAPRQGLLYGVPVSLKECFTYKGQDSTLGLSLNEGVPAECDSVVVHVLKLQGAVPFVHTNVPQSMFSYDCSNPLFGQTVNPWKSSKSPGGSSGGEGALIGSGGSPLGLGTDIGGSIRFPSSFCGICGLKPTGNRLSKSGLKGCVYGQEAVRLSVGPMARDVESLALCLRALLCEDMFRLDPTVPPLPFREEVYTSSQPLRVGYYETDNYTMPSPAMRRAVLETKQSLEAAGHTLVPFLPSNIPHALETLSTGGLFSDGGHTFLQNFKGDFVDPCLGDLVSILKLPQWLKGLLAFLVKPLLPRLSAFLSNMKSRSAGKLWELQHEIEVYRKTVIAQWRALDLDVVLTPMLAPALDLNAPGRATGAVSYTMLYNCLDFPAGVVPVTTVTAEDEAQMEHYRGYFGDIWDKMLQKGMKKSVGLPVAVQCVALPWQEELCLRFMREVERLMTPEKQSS

As for `COc1ccc(C(c2ccc(OC)cc2)N2CCN(C(=O)n3cnc(C#N)n3)CC2)cc1` [Example 90, 1-(4-(bis(4-methoxyphenyl)methyl)piperazine-1-carbonyl)-1H-1,2,4-triazole-3-carbonitrile], the pIC50 (in general, the IC50 on a negative log10 scale, so that one unit is a factor of ten) on human recombinant MAGL (setting [1]) is 8.00 to 9.00; on human recombinant FAAH, 5.00 to 6.00.
For `COc1ccc(C(c2ccc3c(c2)COCO3)N2CCN(C(=O)n3cnc(C#N)n3)CC2)cn1` (centres unmarked) [Example 118, 1-(4-((4H-benzo[d][1,3]dioxin-6-yl)(6-methoxypyridin-3-yl)methyl)piperazine-1-carbonyl)-1H-1,2,4-triazole-3-carbonitrile], the pIC50 at human recombinant MAGL (setting [1]) was 8.00 to 9.00; at human recombinant FAAH, roughly 5.00.
As to `O=C(On1nnc2ccccc21)N1CCN(C(c2ccc3c(c2)COCO3)c2ccc3c(c2)COCO3)CC1` [Example 27, 1H-benzo[d][1,2,3]triazol-1-yl 4-(bis(4H-benzo[d][1,3]dioxin-6-yl)methyl)piperazine-1-carboxylate], the pIC50 was 7.00 to 8.00 at human recombinant MAGL and less than 5.00 at human recombinant FAAH.
On to `O=C(OC1CCCCC1)N1CCN(C(c2ccc3c(c2)COCO3)c2ccc3c(c2)COCO3)CC1` [Example 16, cyclohexyl 4-(bis(4H-benzo[d][1,3]dioxin-6-yl)methyl)piperazine-1-carboxylate], for which the pIC50 is less than 7.00 on human recombinant MAGL (setting [1]) and less than 4.30 at human recombinant FAAH.
As to `O=C(N1CCN(C(c2ccc3c(c2)COCO3)c2ccc3c(c2)COCO3)CC1)n1nnc2cc3c(cc21)OCCO3` [Example 46, (4-(bis(4H-benzo[d][1,3]dioxin-6-yl)methyl)piperazin-1-yl)(6,7-dihydro-1H-[1,4]dioxino[2′,3′:4,5]benzo[1,2-d][1,2,3]triazol-1-yl)methanone], the pIC50 was 7.00 to 8.00 on human recombinant MAGL (setting [1]) and less than 5.00 on human recombinant FAAH.
In the same order, the values of `N#Cc1ncn(C(=O)N2CCN(C(c3ccc4c(c3)OCCO4)c3ccc4c(c3)OCCO4)CC2)n1` [Example 92, 1-(4-(bis(2,3-dihydrobenzo[b][1,4]dioxin-6-yl)methyl)piperazine-1-carbonyl)-1H-1,2,4-triazole-3-carbonitrile] are 8.00 to 9.00 and roughly 5.00.
`N#Cc1ccc2nnn(C(=O)N3CCC(OC(c4ccc5c(c4)COCO5)c4ccc5c(c4)COCO5)CC3)c2c1` [Example 56, 1-(4-(bis(4H-benzo[d][1,3]dioxin-6-yl)methoxy)piperidine-1-carbonyl)-1H-benzo[d][1,2,3]triazole-6-carbonitrile]: the pIC50 is 8.00 to 9.00 on human recombinant MAGL (setting [1]) and less than 5.00 at human recombinant FAAH.
In the case of `O=C(N1CCN(C(c2ccc3c(c2)COCO3)c2ccc3c(c2)COCO3)CC1)n1cnc(Cl)n1` [Example 2, (4-(bis(4H-benzo[d][1,3]dioxin-6-yl)methyl)piperazin-1-yl)(3-chloro-1H-1,2,4-triazol-1-yl)methanone], the values for the pIC50 at human recombinant MAGL (setting [1]) and on human recombinant FAAH were 8.00 to 9.00 and less than 5.00, respectively.
Consider `N#Cc1ccc2c(c1)nnn2C(=O)N1CCN(C(c2ccc3c(c2)COCO3)c2ccc3c(c2)COCO3)CC1` [Example 49, 1-(4-(bis(4H-benzo[d][1,3]dioxin-6-yl)methyl)piperazine-1-carbonyl)-1H-benzo[d][1,2,3]triazole-5-carbonitrile], for which the pIC50 on human recombinant MAGL (setting [1]) was 7.00 to 8.00; on human recombinant FAAH, less than 4.70.
As to `COc1ccc(C(c2cccnc2)N2CCN(C(=O)n3cnc(C#N)n3)CC2)cc1` (centres unmarked) [Example 104, 1-(4-((4-methoxyphenyl)(pyridin-3-yl)methyl)piperazine-1-carbonyl)-1H-1,2,4-triazole-3-carbonitrile], the pIC50 is 8.00 to 9.00 at human recombinant MAGL (setting [1]) and 5.00 to 6.00 on human recombinant FAAH.
With `Cn1ncc2cc(C(c3ccc4c(cnn4C)c3)N3CCN(C(=O)n4cnc(C#N)n4)CC3)ccc21` [Example 111, 1-(4-(bis(1-methyl-1H-indazol-5-yl)methyl)piperazine-1-carbonyl)-1H-1,2,4-triazole-3-carbonitrile], the pIC50 on human recombinant MAGL (setting [1]) was 8.00 to 9.00; on human recombinant FAAH, roughly 5.00.
In the case of `O=C(On1nnc2ccc(C(F)(F)F)cc21)N1CCN(C(c2ccc3c(c2)COCO3)c2ccc3c(c2)COCO3)CC1` [Example 22, 6-(trifluoromethyl)-1H-benzo[d][1,2,3]triazol-1-yl 4-(bis(4H-benzo[d][1,3]dioxin-6-yl)methyl)piperazine-1-carboxylate], the pIC50 at human recombinant MAGL (setting [1]) was less than 7.00; on human recombinant FAAH, less than 4.30.
As to `O=C(Oc1ccc([N+](=O)[O-])cc1)N1CCN(C(c2ccc3c(c2)COCO3)c2ccc3c(c2)COCO3)CC1` [Example 4, 4-nitrophenyl 4-(bis(4H-benzo[d][1,3]dioxin-6-yl)methyl)piperazine-1-carboxylate], the pIC50 is 6.00 to 7.00 at human recombinant MAGL and less than 5.00 on human recombinant FAAH.
In the case of `N#Cc1ccc(C(c2ccc(C#N)cc2)N2CCN(C(=O)n3nnc4ccc(C#N)cc43)CC2)cc1` [Example 100, 4,4′-((4-(6-cyano-1H-benzo[d][1,2,3]triazole-1-carbonyl)piperazin-1-yl)methylene)dibenzonitrile], the pIC50 on human recombinant MAGL (setting [1]) was 8.00 to 9.00; at human recombinant FAAH it was less than 4.30.
For the molecule `O=C(Oc1ccc([N+](=O)[O-])cc1F)N1CCN(C(c2ccc3c(c2)COCO3)c2ccc3c(c2)COCO3)CC1` [Example 19, 2-fluoro-4-nitrophenyl 4-(bis(4H-benzo[d][1,3]dioxin-6-yl)methyl)piperazine-1-carboxylate], the pIC50 on human recombinant MAGL (setting [1]) is less than 7.00; on human recombinant FAAH, less than 4.30.
For `N#Cc1ccc2c(c1)nnn2C(=O)N1CCC(OC(c2ccc3c(c2)COCO3)c2ccc3c(c2)COCO3)CC1` [Example 57, 1-(4-(bis(4H-benzo[d][1,3]dioxin-6-yl)methoxy)piperidine-1-carbonyl)-1H-benzo[d][1,2,3]triazole-5-carbonitrile], the pIC50 at human recombinant MAGL (setting [1]) was 8.00 to 9.00; at human recombinant FAAH, 6.00 to 7.00.
Consider `N#Cc1ncn(C(=O)N2C3CCC2CC(C(c2ccc4c(c2)COCO4)c2ccc4c(c2)COCO4)C3)n1` (centres unmarked) [Example 130, 1-(3-(bis(4H-benzo[d][1,3]dioxin-6-yl)methyl)-8-azabicyclo[3.2.1]octane-8-carbonyl)-1H-1,2,4-triazole-3-carbonitrile], for which the pIC50 is 8.00 to 9.00 on human recombinant MAGL and less than 4.30 at human recombinant FAAH.
As for `N#Cc1ccc2nnn(C(=O)N3CCN(C(c4ccc5c(c4)OC(F)(F)O5)c4ccc5c(c4)OC(F)(F)O5)CC3)c2c1` [Example 98, 1-(4-(bis(2,2-difluorobenzo[d][1,3]dioxol-5-yl)methyl)piperazine-1-carbonyl)-1H-benzo[d][1,2,3]triazole-6-carbonitrile], the pIC50 on human recombinant MAGL (setting [1]) is 8.00 to 9.00; at human recombinant FAAH, less than 4.30.
In the same order, the values of `N#Cc1ncn(C(=O)N2CC3(CC(=C(c4ccc5c(c4)COCO5)c4ccc5c(c4)COCO5)C3)C2)n1` [Example 126, 1-(6-(bis(4H-benzo[d][1,3]dioxin-6-yl)methylene)-2-azaspiro[3.3]heptane-2-carbonyl)-1H-1,2,4-triazole-3-carbonitrile] are 8.00 to 9.00 and 5.00 to 6.00.
`N#Cc1ccc2c(c1)nnn2C(=O)N1CCN(C(c2ccc(F)cc2)c2ccc(F)cc2)CC1` [Example 121, 1-(4-(bis(4-fluorophenyl)methyl)piperazine-1-carbonyl)-1H-benzo[d][1,2,3]triazole-5-carbonitrile]: the pIC50 was 8.00 to 9.00 at human recombinant MAGL (setting [1]) and roughly 7.00 at human recombinant FAAH.
In the same order, the values of `N#Cc1ncn(C(=O)N2CCN(C(c3ccc(-n4cccn4)cc3)c3ccc(-n4cccn4)cc3)CC2)n1` [Example 116, 1-(4-(bis(4-(1H-pyrazol-1-yl)phenyl)methyl)piperazine-1-carbonyl)-1H-1,2,4-triazole-3-carbonitrile] are 8.00 to 9.00 and 4.30 to 5.00.
Consider `N#Cc1ncn(C(=O)N2C3CCC2CC(=C(c2ccc4c(c2)COCO4)c2ccc4c(c2)COCO4)C3)n1` [Example 127, 1-(3-(bis(4H-benzo[d][1,3]dioxin-6-yl)methylene)-8-azabicyclo[3.2.1]octane-8-carbonyl)-1H-1,2,4-triazole-3-carbonitrile], for which the values for the pIC50 at human recombinant MAGL and on human recombinant FAAH were 8.00 to 9.00 and less than 4.30, respectively.
For `O=C(Nc1cnccc1Cl)N1CCN(Cc2ccc3c(c2)OC(F)(F)O3)CC1` [JNJ-42165279, reference compound], the pIC50 was less than 4.30 at human recombinant MAGL (setting [1]) and 6.98 on human recombinant FAAH.
In the case of `N#Cc1ncn(C(=O)N2CCC(N(c3ccc(C(F)(F)F)cc3)c3ccc4c(c3)OCO4)CC2)n1` [Example 71, 1-(4-(benzo[d][1,3]dioxol-5-yl(4-(trifluoromethyl)phenyl)amino)piperidine-1-carbonyl)-1H-1,2,4-triazole-3-carbonitrile], the pIC50 on human recombinant MAGL (setting [1]) was 8.00 to 9.00; on human recombinant FAAH, 6.00 to 7.00.
For the molecule `N#Cc1ncn(C(=O)N2CCN(C(c3ccc4c(c3)COCO4)c3ccc4c(c3)COCO4)CC2)n1` [Example 36, 1-(4-(bis(4H-benzo[d][1,3]dioxin-6-yl)methyl)piperazine-1-carbonyl)-1H-1,2,4-triazole-3-carbonitrile], the pIC50 is 7.00 to 8.00 on human recombinant MAGL (setting [1]) and less than 5.00 on human recombinant FAAH.
Take `N#Cc1ccc2nnn(C(=O)N3CCC(N(c4cccnc4)c4ccc5c(c4)OCO5)CC3)c2c1` [Example 74, 1-(4-(benzo[d][1,3]dioxol-5-yl(pyridin-3-yl)amino)piperidine-1-carbonyl)-1H-benzo[d][1,2,3]triazole-6-carbonitrile]: the pIC50 on human recombinant MAGL (setting [1]) was 8.00 to 9.00; on human recombinant FAAH it was 6.00 to 7.00.
Consider `O=C(Oc1ccc([N+](=O)[O-])cc1[N+](=O)[O-])N1CCN(C(c2ccc3c(c2)COCO3)c2ccc3c(c2)COCO3)CC1` [Example 13, 2,4-dinitrophenyl 4-(bis(4H-benzo[d][1,3]dioxin-6-yl)methyl)piperazine-1-carboxylate], for which the pIC50 on human recombinant MAGL (setting [1]) was less than 7.00; at human recombinant FAAH, less than 5.00.
As for “1-(4-(bis(2,3-dihydrobenzo[b][1,4]dioxin-6-yl)methyl)piperazine-1-carbonyl)-1H-benzo[d][1,2,3]triazole-6-carbonitrile and 1-(4-(bis(2,3-dihydrobenzo[b][1,4]dioxin-6-yl)methyl)piperazine-1-carbonyl)-1H-benzo[d][1,2,3]triazole-5-carbonitrile [Example 91]”, the results for the pIC50 on human recombinant MAGL (setting [1]) and on human recombinant FAAH were 8.00 to 9.00 and less than 4.30, respectively.
